Assay results as given in ChEMBL document CHEMBL1138038, “Sequence-based design and discovery of peptide inhibitors of HIV-1 integrase: insight into the binding mode of the enzyme” (J Med Chem, 2006).
Residues, ends and D or L forms follow the SMILES beside them.

How the values were obtained:
[1] = biological target: T1, Human immunodeficiency virus type 1 integrase (Human immunodeficiency virus 1, UniProt Q7ZJM1); assay: Inhibition of wild type HIV1 integrase 3' processing activity
[2] = biological target: T1, Human immunodeficiency virus type 1 integrase; assay: Inhibition of wild type HIV1 integrase strand transfer activity

T1 sequence (Q7ZJM1 whole entry): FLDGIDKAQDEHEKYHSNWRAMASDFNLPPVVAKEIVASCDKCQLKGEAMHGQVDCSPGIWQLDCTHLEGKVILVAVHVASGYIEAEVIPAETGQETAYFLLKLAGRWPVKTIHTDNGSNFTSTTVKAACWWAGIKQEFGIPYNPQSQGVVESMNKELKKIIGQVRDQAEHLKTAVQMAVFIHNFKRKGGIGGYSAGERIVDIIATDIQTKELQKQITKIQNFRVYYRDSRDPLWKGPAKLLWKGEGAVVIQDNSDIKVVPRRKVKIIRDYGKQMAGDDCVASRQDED

IC50 [1] [µM]	IC50 [2] [µM]	Molecule
3.5	4	CC(C)C[C@@H](NC(=O)[C@@H](C)NC(=O)CNC(=O)[C@@H](CCCN=C(N)N)NC(=O)[C@H](N)Cc1c[nH]c2ccccc12)C(=O)N[C@H](CCCCN)C(=O)N[C@H](CC(C)C)C(=O)N[C@H](CC(C)C)C(=O)N[C@H](Cc1ccccc1)C(=O)N[C@H](Cc1ccc(O)cc1)C(=O)N[C@H](C)C(=O)N[C@@H](C(=O)O)[C@H](C)O
> 1000	> 1000	CC[C@@H](C)[C@@H](NC(=O)[C@@H](CCCCN)NC(=O)[C@@H](CCC(N)=O)NC(=O)[C@@H](CCC(=O)O)NC(=O)[C@H](N)Cc1ccccc1)C(=O)NCC(=O)N[C@H](C)C(=O)N[C@H](Cc1c[nH]c2ccccc12)C(=O)N[C@H](Cc1c[nH]c2ccccc12)C(=O)N[C@@H](CS)C(=O)N[C@H](C)C(=O)O
> 1000	> 1000	CC[C@@H](C)[C@@H](NC(=O)CNC(=O)[C@@H](C)NC(=O)[C@@H](Cc1c[nH]c2ccccc12)NC(=O)[C@@H](Cc1c[nH]c2ccccc12)NC(=O)[C@@H](CS)NC(=O)[C@@H](C)N)C(=O)N[C@H](CCCCN)C(=O)N[C@H](CCC(N)=O)C(=O)N[C@H](CCC(=O)O)C(=O)N[C@H](Cc1ccccc1)C(=O)O
96	16	CC(C)C[C@@H](NC(=O)[C@@H](CCCCN)NC(=O)[C@@H](CC(C)C)NC(=O)[C@@H](CC(C)C)NC(=O)[C@@H](Cc1ccccc1)NC(=O)[C@@H](Cc1ccc(O)cc1)NC(=O)[C@@H](C)NC(=O)[C@H](N)[C@H](C)O)C(=O)N[C@H](C)C(=O)NCC(=O)N[C@H](CCCN=C(N)N)C(=O)N[C@H](Cc1c[nH]c2ccccc12)C(=O)O
> 1000	> 1000	CC[C@H](C)[C@H](NC(=O)[C@H](CCCCN)NC(=O)[C@H](CCC(N)=O)NC(=O)[C@H](CCC(=O)O)NC(=O)[C@@H](N)Cc1ccccc1)C(=O)NCC(=O)N[C@@H](C)C(=O)N[C@@H](Cc1c[nH]c2ccccc12)C(=O)N[C@@H](Cc1c[nH]c2ccccc12)C(=O)N[C@@H](CS)C(=O)N[C@@H](C)C(=O)O
118	19	CC(C)C[C@H](NC(=O)[C@H](CCCCN)NC(=O)[C@H](CC(C)C)NC(=O)[C@H](CC(C)C)NC(=O)[C@H](Cc1ccccc1)NC(=O)[C@H](Cc1ccc(O)cc1)NC(=O)[C@H](C)NC(=O)[C@@H](N)[C@@H](C)O)C(=O)N[C@@H](C)C(=O)N[C@@H](C)C(=O)N[C@@H](CCCN=C(N)N)C(=O)N[C@@H](Cc1c[nH]c2ccccc12)C(=O)O
> 2000	> 2000	CC(C)C[C@H](NC(=O)[C@H](CCC(N)=O)NC(=O)[C@H](CS)NC(=O)[C@H](CCCCN)NC(=O)[C@H](CC(=O)O)NC(=O)[C@H](CS)NC(=O)[C@H](CO)NC(=O)[C@H](C)N)C(=O)N[C@@H](CCCCN)C(=O)NCC(N)=O (H-ASCDKCQLKG-NH2)
1000	1000	CC[C@H](C)[C@H](NC(=O)CNC(=O)[C@@H]1CCCN1C(=O)[C@H](CO)NC(=O)[C@H](CS)NC(=O)[C@H](CC(=O)O)NC(=O)[C@@H](NC(=O)[C@H](CCC(N)=O)NC(=O)CNC(=O)[C@@H](N)Cc1cnc[nH]1)C(C)C)C(=O)N[C@@H](Cc1c[nH]c2ccccc12)C(=O)N[C@@H](CCC(N)=O)C(=O)N[C@@H](CC(C)C)C(=O)N[C@@H](CC(=O)O)C(=O)N[C@@H](CS)C(=O)N[C@H](C(=O)N[C@@H](Cc1cnc[nH]1)C(N)=O)[C@@H](C)O (H-HGQVDCSPGIWQLDCTH-NH2)
277	311	H-AAWWAGIKQEF-OH
100	47	H-AAYFLLKLAGRW-OH
33	34	H-ACAWAGIKQEF-OH
46	16	H-ACGWAGIKQEF-NH2
> 333	> 333	H-ACWAAGIKQEF-OH
> 333	> 333	H-ACWGAGIKQEF-NH2
90	43	H-ACWWAAIKQEF-OH
> 100	60	H-ACWWAG-NH2
> 333	> 333	H-ACWWAGAKQEF-OH
62	55	H-ACWWAGIAQEF-OH
> 333	> 333	H-ACWWAGIKAEF-OH
> 333	> 333	H-ACWWAGIKQAF-OH
245	206	H-ACWWAGIKQEA-OH
95	56	H-ACWWAGIKQEF-NH2
> 333	> 333	H-ACWWAGIRQEF-NH2
294	163	H-ASWWAGIKQEF-NH2
> 2000	> 2000	H-EEHEKYHSNW-NH2
> 2000	> 2000	H-ESMNKELKKI-NH2

IC50 [1] [µM]	IC50 [2] [µM]	Molecule
> 1000	> 1000	H-FGIPYNPQSQ-NH2
> 2000	> 2000	H-FIHNFKRK-NH2
> 2000	> 2000	H-GRWPVKT-NH2
> 2000	> 2000	H-GYSAGERIVD-NH2
> 2000	> 2000	H-HTDNGSNF-NH2
> 100	> 100	H-IKQEF-NH2
> 100	> 100	H-KLAGRW-NH2
> 2000	> 2000	H-PAETGQET-NH2
193	119	H-TAAFLLKLAGRW-OH
186	11	H-TASFLLKLAGRW-NH2
> 333	> 333	H-TAYALLKLAGRW-OH
115	51	H-TAYFALKLAGRW-OH
> 333	> 333	H-TAYFLAKLAGRW-OH
500	500	H-TAYFLL-NH2
113	56	H-TAYFLLALAGRW-OH
4.1	3	H-TAYFLLILAGRW-NH2
> 333	106	H-TAYFLLKAAGRW-OH
83	80	H-TAYFLLKLAGAW-OH
> 333	> 333	H-TAYFLLKLAGRA-OH
315	38	H-TAYFLLKLAGRL-NH2
> 2000	> 2000	H-VHVASGY-NH2
> 1000	> 1000	H-VPRRKAKI-NH2
> 2000	> 2000	H-VRDQAEHLKT-NH2
> 100	> 100	H-WAGIKQ-NH2
> 1000	> 1000	H-WKGPAKLLWK-NH2

Molecule	IC50 [1] [µM]	IC50 [2] [µM]
CC(C)C[C@@H](NC(=O)[C@@H](CCCCN)NC(=O)[C@@H](CC(C)C)NC(=O)[C@@H](CC(C)C)NC(=O)[C@@H](Cc1ccccc1)NC(=O)[C@@H](Cc1ccc(O)cc1)NC(=O)[C@@H](C)NC(=O)[C@H](N)[C@H](C)O)C(=O)N[C@H](C)C(=O)NCC(=O)N[C@H](CCCN=C(N)N)C(=O)N[C@H](Cc1c[nH]c2ccccc12)C(N)=O	65	13
CC(C)C[C@H](NC(=O)[C@H](CCCCN)NC(=O)[C@H](CC(C)C)NC(=O)[C@H](CC(C)C)NC(=O)[C@H](Cc1ccccc1)NC(=O)[C@H](Cc1ccc(O)cc1)NC(=O)[C@H](C)NC(=O)[C@@H](N)[C@@H](C)O)C(=O)N[C@@H](C)C(=O)NCC(=O)N[C@@H](CCCN=C(N)N)C(=O)N[C@@H](Cc1c[nH]c2ccccc12)C(N)=O	21	2.7
H-YFLLKL-NH2	20	20
